Results taken from US12441768B2, “Compositions and methods for treating endometriosis” (EndoMet Biosciences, Inc., priority 2018, dated 2025).
*1 amine or outer side, *2 acyl side, *3 side chain or, on linkers, in order; H or OH if unused. Where a SMILES comes first, the peptide text is derived from it. [ ]: non-standard residue; d: D form. ξ: configuration not given here. X4 = CC[C@@H](C)C(N[*:1])C(=O)[*:2]; ξW = NC(Cc1c[nH]c2ccccc12)C(=O)O; ξL = CC(C)CC(N)C(=O)O; ξC = NC(CS)C(=O)O; βAla = NCCC(=O)O

Target: T1, β-catenin (Homo sapiens, UniProt P35222)
T1 sequence (P35222 1-781): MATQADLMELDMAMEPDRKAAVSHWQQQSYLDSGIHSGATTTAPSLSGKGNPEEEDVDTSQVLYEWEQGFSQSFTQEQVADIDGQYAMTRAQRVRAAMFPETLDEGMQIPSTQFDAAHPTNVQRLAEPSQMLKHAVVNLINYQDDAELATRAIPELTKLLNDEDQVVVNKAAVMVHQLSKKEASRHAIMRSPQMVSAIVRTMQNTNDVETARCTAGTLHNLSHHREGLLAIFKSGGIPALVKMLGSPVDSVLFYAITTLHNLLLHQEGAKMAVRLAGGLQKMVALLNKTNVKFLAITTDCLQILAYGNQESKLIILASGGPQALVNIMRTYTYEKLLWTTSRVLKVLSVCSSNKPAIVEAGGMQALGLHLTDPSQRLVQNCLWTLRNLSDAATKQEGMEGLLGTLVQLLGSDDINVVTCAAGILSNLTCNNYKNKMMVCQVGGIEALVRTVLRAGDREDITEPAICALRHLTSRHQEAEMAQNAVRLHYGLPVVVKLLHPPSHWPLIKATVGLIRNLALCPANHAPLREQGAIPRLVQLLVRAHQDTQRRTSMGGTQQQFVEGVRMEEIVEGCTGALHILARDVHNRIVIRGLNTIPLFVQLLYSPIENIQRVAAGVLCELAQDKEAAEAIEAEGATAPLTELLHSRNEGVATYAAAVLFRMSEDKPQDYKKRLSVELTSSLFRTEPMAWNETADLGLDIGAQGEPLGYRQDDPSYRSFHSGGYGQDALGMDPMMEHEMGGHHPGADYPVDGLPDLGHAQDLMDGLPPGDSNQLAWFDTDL
Assay: KD50 measurement using competitive fluorescence polarization (FP) with labelled TCF4
Format: binding
Conditions: fluorescence polarization, β-catenin; for Kd: read-out: β-Cat FP KD
Excerpt: Fluorescence polarization (FP) is another method used to analyze protein-ligand interactions. This methodology measures the change in fluorescence light emitted by a labelled compound free vs. conjugated to another compound in solution. Upon binding of the fluorescent molecule to a complex, polarization increases because of limited rotation of the fluorescent tracer. Competitive FP is often utilized in drug screens as it is formatted for high throughput screens in a plate format. This immunoassay is performed by introducing a non-conjugated drug to compete for binding to the labelled competitor-ligand complex, leading to a reduction in polarization. TCF4 protein is utilized for the competitive assay as (1) this protein influences the full activation of the Wnt pathway and (2) shares homology with the β-catenin inhibitors. Exemplary methodology is described in Example 13. Data were analyzed and plotted in Microsoft Excel (Microsoft, Redmond, WA).
5 nM of labelled TCF4 protein was added to solution of 100 nM of β-catenin and incubated at room temperature in 96-well plates (Greiner 96 Flat transparent plates, Millipore Sigma, Carlsbad CA). Varying concentrations of β-catenin inhibitor candidate (SEQ ID NO: 404) were then added in a series of serial dilutions from 10 nM to 30 uM of inhibitor in different wells of the plate. The fluorescence polarization was read by Infinite M1000 (Tecan, Baldwin Park CA) at excitation wavelength of 470 nm and measured at emission wavelength of 520 nm. […] The experiments were performed three times and data were analyzed and plotted in Microsoft Excel (Microsoft, Redmond, WA).

Row | SMILES | β-Cat FP Hill slope | Kd [µM]
1 | CC[C@H](C)[C@H](NC(=O)[C@H](CC(C)C)NC(=O)[C@@H]1CCC(=O)NCCCC[C@H](N)C(=O)N[C@@H](Cc2c[nH]c3ccccc23)C(=O)N1)C(=O)N[C@@H](CO)C(=O)N[C@@H](Cc1ccccc1)C(=O)N[C@@H](Cc1c[nH]c2ccccc12)C(=O)NCC(=O)O [compound 232] (HELM PEPTIDE1{K.W.E.L.I.S.F.W.G}$PEPTIDE1,PEPTIDE1,1:R3-3:R3$$$V2.0) | 2.73 | 1 to 10
2 | CC[C@@H](C)C(NC(=O)C(CC(C)C)NC(=O)[C@H](Cc1ccccc1)NC(=O)C(Cc1c[nH]c2ccccc12)NC(=O)[C@H](CCCCN)NC(C)=O)C(=O)NC(CS)C(=O)N[C@@H](C)C(=O)NC(Cc1c[nH]c2ccccc12)C(=O)NCCC(=O)O (stereo partly shown) [compound 235] (Ac-K[ξW]F[ξL][X4][ξC]A[ξW][βAla]-OH) | – | > 30
3 | CC[C@H](C)[C@H](NC(=O)[C@@H](N)CC(C)C)C(=O)N[C@@H](CO)C(=O)N[C@@H](Cc1ccccc1)C(=O)N[C@@H](Cc1c[nH]c2ccccc12)C(=O)NCC(=O)O [compound 237] (H-LISFWG-OH) | 0.72 | > 30
4 | CC[C@H](C)[C@H](NC(=O)[C@H](CC(C)C)NC(C)=O)C(=O)N[C@@H](CO)C(=O)N[C@@H](Cc1ccccc1)C(=O)N[C@@H](Cc1c[nH]c2ccccc12)C(=O)NCC(=O)O [compound 238] (Ac-LISFWG-OH) | 0.7 | 10 to 30
5 | CC[C@H](C)[C@H](NC(=O)[C@H](CC(C)C)NC(=O)[C@H](Cc1ccccc1)NC(C)=O)C(=O)N[C@@H](CO)C(=O)N[C@@H](Cc1ccccc1)C(=O)N[C@@H](Cc1c[nH]c2ccccc12)C(=O)NCC(=O)O [compound 239] (Ac-FLISFWG-OH) | 0.7 | 1 to 10
6 | CC[C@H](C)[C@H](NC(=O)[C@H](CC(C)C)NC(=O)[C@@H](NC(=O)[C@H](Cc1c[nH]c2ccccc12)NC(=O)[C@H](CCSC)NC(C)=O)[C@@H](C)CC)C(=O)N[C@@H](CO)C(=O)N[C@@H](Cc1ccccc1)C(=O)N[C@@H](Cc1c[nH]c2ccccc12)C(=O)NCCCC(=O)O [compound 240] (HELM PEPTIDE1{[ac].M.W.I.L.I.S.F.W.[O=C(O)CCCN[*:1]]}$$$$V2.0) | 1.44 | < 0.4
7 | CC[C@H](C)[C@H](NC(=O)[C@H](CC(C)C)NC(=O)[C@@H](N)Cc1ccccc1)C(=O)N[C@@H](CO)C(=O)N[C@@H](Cc1ccccc1)C(=O)N[C@@H](Cc1c[nH]c2ccccc12)C(=O)NCC(=O)O [compound 241] (H-FLISFWG-OH) | 0.7 | 1 to 10

Other lines, results leading:

Row | β-Cat FP Hill slope | Kd [µM] | SMILES
8 | 0.2 | > 30 | CC[C@H](C)[C@@H]1NC(=O)[C@H](CC(C)C)NC(=O)[C@H](Cc2ccccc2)NC(=O)[C@H](Cc2c[nH]c3ccccc23)NC(=O)[C@@H](N)CCCCNC(=O)CC[C@@H](C(=O)N[C@@H](Cc2c[nH]c3ccccc23)C(=O)NCC(=O)O)NC(=O)[C@H](CO)NC1=O [compound 228] (HELM PEPTIDE1{K.W.F.L.I.S.E.W.G}$PEPTIDE1,PEPTIDE1,1:R3-7:R3$$$V2.0)
9 | 0.43 | 1 to 10 | CC[C@H](C)[C@@H]1NC(=O)[C@H](CC(C)C)NC(=O)[C@H](Cc2ccccc2)NC(=O)[C@H](Cc2c[nH]c3ccccc23)NC(=O)[C@@H](N)CCCCNC(=O)CC[C@@H](C(=O)N[C@@H](Cc2ccccc2)C(=O)N[C@@H](Cc2c[nH]c3ccccc23)C(=O)NCC(=O)O)NC1=O [compound 229] (HELM PEPTIDE1{K.W.F.L.I.E.F.W.G}$PEPTIDE1,PEPTIDE1,1:R3-6:R3$$$V2.0)
10 | 0.77 | < 0.4 | CC[C@H](C)[C@@H]1NC(=O)[C@H](CC(C)C)NC(=O)[C@@H](NC(=O)[C@H](Cc2c[nH]c3ccccc23)NC(=O)[C@@H](N)CCSC)CCCCNC(=O)CC[C@@H](C(=O)N[C@@H](Cc2ccccc2)C(=O)N[C@@H](Cc2c[nH]c3ccccc23)C(=O)NCC(=O)O)NC1=O [compound 230] (HELM PEPTIDE1{M.W.K.L.I.E.F.W.G}$PEPTIDE1,PEPTIDE1,3:R3-6:R3$$$V2.0)
11 | 0.7 | 1 to 10 | CC(C)C[C@@H]1NC(=O)[C@H](Cc2ccccc2)NC(=O)[C@H](Cc2c[nH]c3ccccc23)NC(=O)[C@@H](N)CCCCNC(=O)CC[C@@H](C(=O)N[C@@H](CO)C(=O)N[C@@H](Cc2ccccc2)C(=O)N[C@@H](Cc2c[nH]c3ccccc23)C(=O)NCC(=O)O)NC1=O [compound 231] (HELM PEPTIDE1{K.W.F.L.E.S.F.W.G}$PEPTIDE1,PEPTIDE1,1:R3-5:R3$$$V2.0)
12 | 0.74 | < 0.4 | CC[C@H](C)[C@@H]1NC(=O)[C@H](CC(C)C)NC(=O)[C@H](Cc2ccccc2)NC(=O)[C@H](Cc2c[nH]c3ccccc23)NC(=O)[C@@H](N)CC(=O)NCCCC[C@@H](C(=O)O)NC(=O)[C@H](Cc2c[nH]c3ccccc23)NC(=O)[C@H](C)NC(=O)[C@H](CS)NC1=O [compound 233] (HELM PEPTIDE1{D.W.F.L.I.C.A.W.K}$PEPTIDE1,PEPTIDE1,1:R3-9:R3$$$V2.0)
13 | 0.7 | 10 to 30 | CC[C@@H]1NC(=O)[C@H]([C@@H](C)CC)NC(=O)[C@H](CC(C)C)NC(=O)[C@H](Cc2ccccc2)NC(=O)[C@H](Cc2c[nH]c3ccccc23)NC(=O)[C@@H](NC(C)=O)CCCCNC(=O)C[C@@H](C(=O)O)NC(=O)[C@H](Cc2c[nH]c3ccccc23)NC(=O)[C@H](C)NC1=O [compound 243] (HELM PEPTIDE1{[ac].K.W.F.L.I.[Abu].A.W.D}$PEPTIDE1,PEPTIDE1,2:R3-10:R3$$$V2.0)
14 | 1.9 | 0.4 to 1 | CC[C@@H]1NC(=O)[C@H]([C@@H](C)CC)NC(=O)[C@H](CC(C)C)NC(=O)[C@H](Cc2ccccc2)NC(=O)[C@H](Cc2c[nH]c3ccccc23)NC(=O)[C@@H](N)CCCCNC(=O)C[C@@H](C(=O)O)NC(=O)[C@H](Cc2c[nH]c3ccccc23)NC(=O)[C@H](C)NC1=O [compound 244] (HELM PEPTIDE1{K.W.F.L.I.[Abu].A.W.D}$PEPTIDE1,PEPTIDE1,1:R3-9:R3$$$V2.0)
15 | 1.28 | < 0.4 | CC[C@H](C)[C@@H]1NC(=O)[C@H](CC(C)C)NC(=O)[C@H](Cc2ccccc2)NC(=O)[C@H](Cc2c[nH]c3ccccc23)NC(=O)CCCCCNC(=O)C[C@@H](C(=O)O)NC(=O)[C@H](Cc2c[nH]c3ccccc23)NC(=O)[C@H](C)NC(=O)[C@H](CS)NC1=O [compound 245] (HELM PEPTIDE1{[O=C(CCCCCN[*:1])[*:2]].W.F.L.I.C.A.W.D}$PEPTIDE1,PEPTIDE1,1:R1-9:R3$$$V2.0)
16 | 3 | < 0.4 | CC[C@@H]1NC(=O)[C@H]([C@@H](C)CC)NC(=O)[C@H](CC(C)C)NC(=O)[C@H](Cc2ccccc2)NC(=O)[C@H](Cc2c[nH]c3ccccc23)NC(=O)CCCCCNC(=O)C[C@@H](C(=O)O)NC(=O)[C@H](Cc2c[nH]c3ccccc23)NC(=O)[C@H](C)NC1=O [compound 246] (HELM PEPTIDE1{[O=C(CCCCCN[*:1])[*:2]].W.F.L.I.[Abu].A.W.D}$PEPTIDE1,PEPTIDE1,1:R1-9:R3$$$V2.0)
17 | 2.34 | < 0.4 | CC[C@H](C)[C@@H]1NC(=O)[C@H](CC(C)C)NC(=O)[C@H](Cc2ccccc2)NC(=O)[C@H](Cc2c[nH]c3ccccc23)NC(=O)[C@@H](N)CCCCNC(=O)CCCNC(=O)C[C@@H](C(=O)O)NC(=O)[C@H](Cc2c[nH]c3ccccc23)NC(=O)[C@H](C)NC(=O)[C@H](CS)NC1=O [compound 247] (HELM PEPTIDE1{K.W.F.L.I.C.A.W.[O=C(O)[C@H](CC(=O)[*:2])N[*:1]].[O=C(CCCN[*:1])[*:2]]}$PEPTIDE1,PEPTIDE1,1:R3-10:R2$$$V2.0)
18 | – | > 30 | CC[C@H](C)[C@@H]1NC(=O)[C@H](CC(C)C)NC(=O)[C@H](Cc2ccccc2)NC(=O)[C@H](Cc2c[nH]c3ccccc23)NC(=O)[C@@H](N)CCCCNC(=O)CCCCNC(=O)C[C@@H](C(=O)O)NC(=O)[C@H](Cc2c[nH]c3ccccc23)NC(=O)[C@H](C)NC(=O)[C@H](CS)NC1=O [compound 248] (HELM PEPTIDE1{K.W.F.L.I.C.A.W.[O=C(O)[C@H](CC(=O)[*:2])N[*:1]].[O=C(CCCCN[*:1])[*:2]]}$PEPTIDE1,PEPTIDE1,1:R3-10:R2$$$V2.0)
